Values quoted from earlier work in patent US8647676B2, “Antimicrobial composition from copepods” (priority 2008, dated 2014).

Conditions: Iwamoto et al. Tetrahedron, 1999 vol. 55 p. 14353

penostatin
cytotoxicity (in words): mild cytotoxic
